From patent US5130414A, “Isolation and structural elucidation of the cyclic peptide hymenistatin 1” (Arizona Board of Regents, a body corporate of Arizona State …, priority 1989, dated 1992)

Tested on: murine P388 lymphocytic leukemia (PS system)
Test: PS system cell growth inhibition (P388 murine leukemia cell line, N.C.I. Protocol)
Format: cell-based

cyclo [Hymenistatin 1, cyclo [Pro^a -Pro^b -Tyr-Val-Pro^c -Leu-Ili-Ile]]
PS ED50: 3.5 µg/mL
